Experimental data from article PMC4308083, “Cytokine-Induced Loss of Glucocorticoid Function: Effect of Kinase Inhibitors, Long-Acting β2-Adrenoceptor Agonist and Glucocorticoid Receptor Ligands” (PLoS ONE, 2015).

Experiments:
2×GRE reporter = test: Modulation of dexamethasone/NR3C1 ligand-induced 2×GRE reporter activation (kinase inhibitors, TNF, formoterol) in BEAS-2B cells; assay type: cell-based, human; conditions: for Effect on dexamethasone-induced 2×GRE reporter activation (concentration-response): 30 min pre-treatment, 6 h (Fig. 3B, Fig. 4), JNK inhibitor VIII only at 30 μM, PKC inhibitors above 1 μM
Protocol: (§1) BEAS-2B cells stably transfected with a glucocorticoid response element (2×GRE) driven luciferase reporter plasmid, pGL3.neo.TATA.neo [23], were cultured in medium containing 0.25 mg/ml G-418 (Promega, Madison, WI). Cells were grown to confluence in 24 or 48 well plates and incubated overnight in serum-free media prior to experiments. Cells were harvested in reporter lysis buffer and luciferase assays performed according to the manufacturer’s instructions (Firefly Luciferase Assay Kit; Biotium; Hayward, CA) using a 20/20n luminometer (Promega).
Data (n = 7), expressed as a percentage of Dex activation, are plotted as means ± S.E. BEAS-2B 2×GRE cells were pre-treated for 30 min with the indicated concentrations of B. PS or JNK or C. JNK in the presence or absence of 10 μM PS, before addition of 10 ng/ml TNF. After 1 h, 10 μM Dex was added and cells harvested 6 h later for luciferase assay. […] D+T indicates Dex plus TNF treatment.
Data (n = 3–4), expressed as fold activation, are plotted as means ± S.E. D+T indicates Dex plus TNF treatment.
(§2) Cells were harvested after 6 h for luciferase assays. Data (n = 7), expressed as fold activation, are plotted as means ± S.E. Lines of best fit were added in panel B. Statistical analyses were performed by ANOVA with a Dunnett’s test comparing each NR3C1 ligand alone versus in the presence of TNF and/or Form. *, P<0.05; **, P<0.01; ***, P<0.001.

AKT1 phosphorylation = test: Western blot of AKT1 phosphorylation in BEAS-2B cells; assay type: cell-based; conditions: Homo sapiens, 30 min pre-treatment, TNF 10 ng/ml 30 min, western blot (S2 Fig.), read-out: EC50 for block of AKT1 phosphorylation
Excerpt: (§3) Cells were lysed in 1× Laemmli buffer supplemented with phosphatase inhibitors (Sigma-Aldrich) and 1× complete protease inhibitor cocktail (Roche; Indianapolis, IN), size fractionated on 12% acrylamide gels and subsequently electro-transferred onto Hybond enhanced chemiluminescent membranes (GE Healthcare; Waukesha, WI). Membranes were blocked in 5% milk in tris-buffered saline containing 1% tween 20 and probed with antibodies against phospho-jun proto-oncogene (pJUN; pc-Jun) (9164; Cell Signaling Technology; Danvers, MA), nuclear factor of kappa light polypeptide gene enhancer in B-cells inhibitor, alpha (NFKBIA; IκBα) (sc-371; Santa Cruz Biotechnology; Dallas, TX), phospho-NFKBIA (9246; Cell Signaling Technology), phospho-AKT1 (9271S; Cell Signaling Technology), AKT (9272S; Cell Signaling Technology) and GAPDH (4699–9555(ST); AbD Serotec; Raleigh, NC). After washing, membranes were incubated with horseradish peroxidase-conjugated anti-rabbit (111–035–003; Jackson ImmunoResearch Laboratories Inc; West Grove, PA) or anti-mouse immunoglobulin (115–035–003; Jackson ImmunoResearch Laboratories Inc). Detection was by enhanced chemiluminescence (Pierce ECL Western Blotting Substrate; Thermo Fisher Scientific Inc.; Rockford, IL) and visualization by autoradiography.
Cells were harvested after 30 min for western blotting and probed for phospho v-akt murine thymoma viral oncogene homolog 1 (pAKT1), AKT1 and glyceraldehyde 3-phosphate dehydrogenase (GAPDH). (PDF) Click here for additional data file.

[1] = tested on: NFKBIA (IκBα) phosphorylation; test: Western blot of TNF-induced NFKBIA phosphorylation in BEAS-2B cells; assay type: cell-based, human; conditions: 30 min pre-treatment, TNF 2 min, western blot (S1 Fig.), read-out: EC50 for reduction of TNF-induced NFKBIA phosphorylation
Excerpt: as §3, with “autoradiography. […]” for “autoradiography.”

[2] = tested on: CDKN1C, DUSP1, RGS2 and TSC22D3 mRNA in BEAS-2B cells; test: RT-PCR of glucocorticoid-inducible gene expression in BEAS-2B cells
Protocol: Cells were harvested 6 h after Dex addition.
BEAS-2B cells were pre-treated for 30 min with either 10 or 3 μM of the JNK MAPK inhibitor JNK inhibitor VIII (JNK) or 10 μM of the IKK2 inhibitor PS-1145 (PS), before addition of 10 ng/ml tumor necrosis factor-α (TNF).
Cells were harvested 6 h after NR3C1 ligand addition.

[3] = target: T1, glucocorticoid receptor (NR3C1) (Homo sapiens, UniProt P04150); test: 2×GRE luciferase reporter activation by NR3C1 ligands in BEAS-2B cells; assay type: cell-based; conditions: BEAS-2B 2×GRE reporter; for pEC50 (M), +TNF / E max (% Dex), +TNF: TNF 10 ng/ml pre-treatment 1 h; for pEC50 (M), +TNF / E max (% Dex), +TNF / pEC50 (M), Naive / E max (% Dex), Naive: 6 h; for E max (% Dex), +TNF / E max (% Dex), Naive: percent of 1 μM dexamethasone; for pEC50 (M), Naive / E max (% Dex), Naive: no TNF
T1 construct: BEAS-2B cells stably transfected with a glucocorticoid response element (2×GRE) driven luciferase reporter plasmid; endogenous in cells; host or cells: BEAS-2B human bronchial epithelial cells stably carrying a 2×GRE luciferase reporter
T1 sequence (P04150 1-777): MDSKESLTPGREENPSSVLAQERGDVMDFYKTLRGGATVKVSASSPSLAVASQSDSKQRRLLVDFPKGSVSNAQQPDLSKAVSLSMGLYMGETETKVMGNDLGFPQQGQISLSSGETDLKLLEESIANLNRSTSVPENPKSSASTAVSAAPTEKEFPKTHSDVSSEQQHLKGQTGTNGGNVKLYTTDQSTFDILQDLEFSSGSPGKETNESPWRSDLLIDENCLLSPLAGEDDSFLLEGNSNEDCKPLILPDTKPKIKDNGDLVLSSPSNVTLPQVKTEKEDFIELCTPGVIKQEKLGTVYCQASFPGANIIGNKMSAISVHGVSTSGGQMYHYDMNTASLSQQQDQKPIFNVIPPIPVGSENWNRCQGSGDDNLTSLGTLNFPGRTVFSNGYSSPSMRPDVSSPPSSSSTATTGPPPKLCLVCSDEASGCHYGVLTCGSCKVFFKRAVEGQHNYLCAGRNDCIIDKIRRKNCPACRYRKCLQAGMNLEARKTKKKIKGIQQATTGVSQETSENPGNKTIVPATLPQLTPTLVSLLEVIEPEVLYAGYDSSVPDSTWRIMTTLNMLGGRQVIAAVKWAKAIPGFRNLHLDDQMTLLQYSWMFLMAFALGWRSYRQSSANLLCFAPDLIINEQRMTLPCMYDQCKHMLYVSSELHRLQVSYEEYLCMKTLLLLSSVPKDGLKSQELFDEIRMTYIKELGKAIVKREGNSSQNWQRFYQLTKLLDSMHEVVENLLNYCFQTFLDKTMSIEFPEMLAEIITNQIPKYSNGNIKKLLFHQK
Protocol: as §1
Cells were harvested 6 h after NR3C1 ligand addition for luciferase assay.
as §2

[4] = tested on: TSC22D3 mRNA in primary ASM cells; test: RT-PCR of dexamethasone-inducible gene expression in primary human airway smooth muscle (ASM) cells; assay type: cell-based; conditions: TNF 10 ng/ml or IL1B 1 ng/ml, 1 μM dexamethasone, 6 h
[5] = tested on: TSC22D3 mRNA in primary HBE cells; test: RT-PCR of dexamethasone-inducible gene expression in primary human bronchial epithelial (HBE) cells; assay type: cell-based; conditions: TNF 10 ng/ml (at 1 h) or IL1B 1 ng/ml (at 18 h), 1 μM dexamethasone
[6] = 10 μM inhibitor 30 min pre-treatment, 6 h (Fig. 3A)

COc1cccc(-c2cc(=O)c3ccccc3o2)c1N [PD098059]
Effect on dexamethasone-induced 2×GRE reporter activation (2×GRE reporter; [6]): significantly reduced

Oc1cccc(-c2nc(N3CCOCC3)c3oc4ncccc4c3n2)c1 [PI103]
EC50 (AKT1 phosphorylation): ~70 nM | Effect on dexamethasone-induced 2×GRE reporter activation (concentration-response) (2×GRE reporter; dexamethasone): concentration-dependently reduced

O=C(Nc1cc(Cl)cc2c1[nH]c1cnccc12)c1cccnc1 [PS-1145]
EC50 [1]: ~1000 nM | 2×GRE reporter induction restored in presence of TNF, % of that induced by dexamethasone (2×GRE reporter; 10 μM inhibitor 30 min pre-treatment, TNF 10 ng/ml, dexamethasone, 6 h (Fig. 3A)): 73% | Effect on dexamethasone-induced 2×GRE reporter activation (concentration-response) (2×GRE reporter; dexamethasone): no effect | TNF-induced repression reversed to % of the response to dexamethasone (2×GRE reporter; concentration-response, TNF 10 ng/ml, dexamethasone, 6 h (Fig. 3B), repression ~60% without inhibitor): 76% | EC50 (2×GRE reporter; read-out: EC50 for reversal of TNF-induced repression of 2×GRE reporter, TNF 10 ng/ml, dexamethasone, 6 h (Fig. 3B)): 600 nM | Additional effect of 10 μM PS-1145 on 2×GRE reporter activity with JNK inhibitor VIII (2×GRE reporter; up to 10 μM JNK inhibitor VIII, TNF, dexamethasone (Fig. 3C)): no obvious additional effect | Effect on DUSP1 mRNA expression with dexamethasone plus TNF plus formoterol ([2]; 10 μM PS-1145, 6 h (Fig. 7)): significantly enhanced | Effect on dexamethasone-induced mRNA expression of CDKN1C, DUSP1, RGS2, TSC22D3 in absence or presence of TNF ([2]; JNK inhibitor VIII 3 or 10 μM, PS-1145 10 μM, 6 h (Fig. 7)): no significant effect

C[C@@H]1C[C@H]2[C@@H]3CCC4=CC(=O)C=C[C@]4(C)[C@@]3(F)[C@@H](O)C[C@]2(C)[C@H]1C(=O)CC#N [RU24858]
Agonist type on 2×GRE reporter relative to dexamethasone [3]: partial agonists | pEC50 (M), +TNF [3]: 7.3 ± 0.0 * M | E max (% Dex), +TNF [3]: 46.0 ± 0.8 % Dex | pEC50 (M), Naive [3]: 7.4 ± 0.0 M | E max (% Dex), Naive [3]: 74.9 ± 1.1 % Dex

Cn1cc(C2=C(c3cn(CCCSC(=N)N)c4ccccc34)C(=O)NC2=O)c2ccccc21 [Ro 31–8220]
Effect on dexamethasone-induced 2×GRE reporter activation (concentration-response) (2×GRE reporter; dexamethasone): reduced

C[S+]([O-])c1ccc(-c2nc(-c3ccncc3)c(-c3ccc(F)cc3)[nH]2)cc1 (stereo not drawn) [SB203580]
Effect on dexamethasone-induced 2×GRE reporter activation (2×GRE reporter; [6]): no effect

COC[C@H]1OC(=O)c2coc3c2[C@@]1(C)C1=C(C3=O)[C@@H]2CCC(=O)[C@@]2(C)C[C@H]1OC(C)=O [wortmannin]
EC50 (AKT1 phosphorylation): ~20 nM | Effect on dexamethasone-induced 2×GRE reporter activation (concentration-response) (2×GRE reporter; dexamethasone): concentration-dependently reduced

GSK9027
Agonist type on 2×GRE reporter relative to dexamethasone [3]: partial agonists | pEC50 (M), +TNF [3]: 7.0 ± 0.1 M | E max (% Dex), +TNF [3]: 40.7 ± 0.9 % Dex | pEC50 (M), Naive [3]: 7.1 ± 0.0 M | E max (% Dex), Naive [3]: 77.2 ± 1.0 % Dex

IL1B: pro-inflammatory cytokine interleukin-1β (R&D systems), used at 1 ng/ml
Repression of dexamethasone-induced TSC22D3 expression [4]: 43% | Maximal repression of dexamethasone-induced TSC22D3 expression [5]: 62%
